Data: US8785430B2, “Compound that can inhibit UBC13-UEV interactions, pharmaceutical compositions and therapeutic uses” (Consejo Superior de Investigaciones Cientificas, priority 2006, dated 2014)

Target: T1, UBC13-UEV1 (Homo sapiens, UniProt P61088)
T1 construct: GST (N); made in house; host or cells: Escherichia coli BL21
T1 sequence (P61088 1-152): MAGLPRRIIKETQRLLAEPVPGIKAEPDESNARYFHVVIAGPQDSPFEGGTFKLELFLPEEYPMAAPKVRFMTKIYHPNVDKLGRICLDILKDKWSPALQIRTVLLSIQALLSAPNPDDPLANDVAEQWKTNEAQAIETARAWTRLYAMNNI
Assay: In vitro free polyubiquitin chain formation assay
Type: biochemical
Procedure: As described in the Background, K63 type polyubiquitylation catalyzed by UBC13-UEV1 requires the interaction between both subunits of the heterodimer. […] In this assay, the formation of polyubiquitin chains in reactions containing 0.1 μM of E1 enzyme (Boston Biochem), 0.2 μM of UBC13, 0.2 μM of UEV1 (produced as described in Example 4), 117 μM of wild-type ubiquitin (Biomol UW8795) or mutated in all the lysines except the lysine in position 63 (ubiquitin K63) or in position 48 (ubiquitin K48; Boston Biochem), is allowed in a reaction buffer with 50 mM of Tris-HC at pH 7.6, 5 mM of MgCl2 and 0.5 mM of dithiothreitol. For the treatments with compound Ia (Varubin), UBC13 was pre-incubated for 10 minutes at room temperature with 100 μM of the compound before being added to the reaction. The reaction was initiated by means of adding 2 mM of ATP, and it was performed by means of incubating at 37° C. at different times, being stopped by means of adding Laemmli buffer (250 mM Tris-HCl, 10% SDS, 500 mM DTT, 0.5% bromophenol blue and 50% glycerol at pH 6.8) and boiling for 3 minutes. The samples were separated electrophoretically in polyacrylamide-SDS gels and transferred electrophoretically to PVDF membranes.

## NC(=O)CN(CCc1ccccn1)C(=O)C1CC(=O)N(CCc2ccc(F)cc2)CC(=O)N1CCc1ccc(F)cc1 (stereo not drawn) [Ia, N-aminocarbamoylmethyl-N-(2′-(2″pyridyl)ethyl)-1,4-bis[2′-(4″-fluorophenyl)ethyl]-3,7-dioxo-[1,4]diazepane-5-carboxamide]
100 μM, slopes of the curves
  type of inhibition of the enzymatic activity of UBC13-UEV1: competitive type
100 μM, ubiquitin K63
  inhibition of polyubiquitylation with ubiquitin K63 as substrate: efficiency similar to when the substrate is wild-type ubiquitin
UBC13 pre-incubated with 100 μM, wild-type ubiquitin
  rate of generation of polyubiquitylated forms: lower rate of generation of polyubiquitylated forms
